{"source": "patent US10125100B2", "about": "“Kinase inhibitors” (Respivert Limited, priority 2014, dated 2018)", "tested_on": "Jurkat cells", "assay": "(r) Cell cytotoxicity assay", "format": "cell-based, human", "conditions": "24 hours", "description": "1×10^5 Jurkat cells (immortalised human T lymphocytes) are added to the appropriate number of wells of a 96 well plate in 100 μL of media (RPMI supplemented with 10% foetal bovine serum). 1 μL of DMSO control (final concentration 1.0% v/v) or test compound (final concentration 20, 5 or 1 μg/mL) is added to the wells and incubated at 37° C., 5% CO2. After 24 hours, the plate is centrifuged at 1200 rpm for 3 minutes and the supernatant discarded. Cells are then resuspended in 150 μL (final concentration 7.5 μg/mL) of propidium iodide (PI) in PBS and incubated at 37° C., 5% CO2 for 15 minutes. After 15 minutes, cells are analysed by flow cytometry (BD accuri) using the FL3 window. The % viability is calculated as the % of cells that are PI negative in the test wells normalised to the DMSO control.", "data": [{"compound": "CCC(=O)NS(=O)(=O)c1ccc(Nc2nccc(Oc3ccc(NC(=O)Nc4cc(C(C)(C)C)cc(NS(C)(=O)=O)c4OC)c4ccccc34)n2)cc1OC", "note": "[17(bk), N-((4-((4-((4-(3-(5-(tert-Butyl)-2-methoxy-3-(methylsulfonamido)phenyl)ureido)-naphthalen-1-yl)oxy)pyrimidin-2-yl)amino)-2-methoxyphenyl)sulfonyl)propionamide]", "values": [{"measurement": "% Viability at 1 μg/mL", "result": 93.0, "unit": "%"}, {"measurement": "% Viability at 5 μg/mL", "result": 71.8, "unit": "%"}, {"measurement": "% Viability at 20 μg/mL", "result": 65.6, "unit": "%"}]}, {"compound": "COc1cc(Nc2cc(Oc3ccc(NC(=O)Nc4cc(C(C)(C)C)cc(NS(C)(=O)=O)c4OC)c4ccccc34)ccn2)ccc1C(=O)NC[C@H](O)[C@@H](O)[C@H](O)[C@H](O)CO", "note": "[17(bw), 4-((4-((4-(3-(5-(tert-Butyl)-2-methoxy-3-(methylsulfonamido)phenyl)ureido)naphthalen-1-yl)oxy)pyridin-2-yl)amino)-2-methoxy-N-((2S,3R,4R,5R)-2,3,4,5,6-pentahydroxyhexyl) benzamide]", "values": [{"measurement": "% Viability at 1 μg/mL", "result": 94.5, "unit": "%"}, {"measurement": "% Viability at 5 μg/mL", "result": 96.2, "unit": "%"}, {"measurement": "% Viability at 20 μg/mL", "result": 92.4, "unit": "%"}]}, {"compound": "COc1c(NC(=O)Nc2ccc(Oc3ccnc(Nc4ccc(C(=O)NCCN5CCN(C)CC5)c(N(C)C)c4)c3)c3ccccc23)cc(C(C)(C)C)cc1NS(C)(=O)=O", "note": "[17(bq), 4-((4-((4-(3-(5-(tert-Butyl)-2-methoxy-3-(methylsulfonamido)phenyl)ureido)naphthalen-1-yl)oxy)pyridin-2-yl)amino)-2-(dimethylamino)-N-(2-(4-methylpiperazin-1-yl)ethyl)benzamide]", "values": [{"measurement": "% Viability at 1 μg/mL", "result": 87.2, "unit": "%"}, {"measurement": "% Viability at 5 μg/mL", "result": 55.3, "unit": "%"}, {"measurement": "% Viability at 20 μg/mL", "result": 2.0, "unit": "%"}]}, {"compound": "COc1cc(Nc2nccc(Oc3ccc(NC(=O)Nc4cc(C(C)(C)C)cc(NS(C)(=O)=O)c4OC)c4ccccc34)n2)ccc1C(=O)NCCCN1CCN(C)CC1", "note": "[17(ap), 4-((4-((4-(3-(5-(tert-Butyl)-2-methoxy-3-(methylsulfonamido)phenyl)ureido)naphthalen-1-yl)oxy)pyrimidin-2-yl)amino)-2-methoxy-N-(3-(4-methylpiperazin-1-yl)propyl)benzamide]", "values": [{"measurement": "% Viability at 1 μg/mL", "result": 97.8, "unit": "%"}, {"measurement": "% Viability at 5 μg/mL", "result": 40.1, "unit": "%"}, {"measurement": "% Viability at 20 μg/mL", "result": 0.6, "unit": "%"}]}, {"compound": "COc1cc(Nc2cc(Oc3ccc(NC(=O)Nc4cc(C(C)(C)C)cc(NS(C)(=O)=O)c4OC)c4ccccc34)ccn2)ccc1C(=O)NCC(CO)(CO)CO", "note": "[Example 38, 4-((4-((4-(3-(5-(tert-Butyl)-2-methoxy-3-(methylsulfonamido)phenyl)ureido)naphthalen-1-yl)oxy)pyridin-2-yl)amino)-N-(3-hydroxy-2,2-bis(hydroxymethyl)propyl)-2-methoxybenzamide]", "values": [{"measurement": "% Viability at 1 μg/mL", "result": 90.0, "unit": "%"}, {"measurement": "% Viability at 5 μg/mL", "result": 63.7, "unit": "%"}, {"measurement": "% Viability at 20 μg/mL", "result": 6.0, "unit": "%"}]}, {"compound": "COc1cc(Nc2cc(Oc3ccc(NC(=O)Nc4cc(C(C)(C)C)cc(NS(C)(=O)=O)c4OC)c4ccccc34)ccn2)ccc1S(=O)(=O)N(C)CCCN1CCN(C)CC1", "note": "[Example 25, 4-((4-((4-(3-(5-(tert-Butyl)-2-methoxy-3-(methylsulfonamido)phenyl)ureido)naphthalen-1-yl)oxy)pyridin-2-yl)amino)-2-methoxy-N-methyl-N-(3-(4-methylpiperazin-1-yl)propyl)benzenesulfonamide]", "values": [{"measurement": "% Viability at 1 μg/mL", "result": 91.8, "unit": "%"}, {"measurement": "% Viability at 5 μg/mL", "result": 78.9, "unit": "%"}, {"measurement": "% Viability at 20 μg/mL", "result": 0.7, "unit": "%"}]}, {"compound": "COc1cc(Nc2cc(Oc3ccc(NC(=O)Nc4cc(C(C)(C)C)cc(NS(C)(=O)=O)c4OC)c4ccccc34)ccn2)ccc1C(=O)NCCC(=O)O", "note": "[17(ay), 3-(4-((4-((4-(3-(5-(tert-Butyl)-2-methoxy-3-(methylsulfonamido)phenyl)ureido)-naphthalen-1-yl)oxy)pyridin-2-yl)amino)-2-methoxybenzamido)propanoic acid]", "values": [{"measurement": "% Viability at 1 μg/mL", "result": 95.3, "unit": "%"}, {"measurement": "% Viability at 5 μg/mL", "result": 94.6, "unit": "%"}, {"measurement": "% Viability at 20 μg/mL", "result": 90.1, "unit": "%"}]}]}
